Data reported in the supplement of paper PMC13380429.

Key:
Conditions in all cases: 72 h
Vero E6 [1] = assay: relative viability EC50 (midpoint between 100% and the lowest measured viability); higher = less toxic
Calu-3 [2] = assay: as above
HepG2 [3] = assay: cell viability relative to DMSO; higher = less toxic
Caco-2 [4] = assay: as above
Vero E6 [5] = assay: as above
Calu-3 [6] = assay: as above
U2OS [7] = assay: as above
HepG2 [8] = assay: drug sensitivity score (DSS) for viability; higher = more toxic; extreme values may be limits of the assay
Caco-2 [9] = assay: as above
Vero E6 [10] = assay: as above
Calu-3 [11] = assay: as above
U2OS [12] = assay: as above
HepG2 [13] = assay: relative viability EC50 (midpoint between 100% and the lowest measured viability); higher = less toxic
Caco-2 [14] = assay: as above

| SMILES | relative viability EC50 (Vero E6 [1]) [µM] | relative viability EC50 (Calu-3 [2]) [µM] | cell viability (HepG2 [3]; 1 nM) [%] | cell viability (HepG2 [3]; 10 nM) [%] | cell viability (HepG2 [3]; 100 nM) [%] | cell viability (HepG2 [3]; 1000 nM) [%] | cell viability (HepG2 [3]; 10000 nM) [%] | cell viability (Caco-2 [4]; 1 nM) [%] | cell viability (Caco-2 [4]; 10 nM) [%] | cell viability (Caco-2 [4]; 100 nM) [%] | cell viability (Caco-2 [4]; 1000 nM) [%] | cell viability (Caco-2 [4]; 10000 nM) [%] | cell viability (Vero E6 [5]; 1 nM) [%] | cell viability (Vero E6 [5]; 10 nM) [%] | cell viability (Vero E6 [5]; 100 nM) [%] | cell viability (Vero E6 [5]; 1000 nM) [%] | cell viability (Vero E6 [5]; 10000 nM) [%] | cell viability (Calu-3 [6]; 1 nM) [%] | cell viability (Calu-3 [6]; 10 nM) [%] | cell viability (Calu-3 [6]; 100 nM) [%] | cell viability (Calu-3 [6]; 1000 nM) [%] | cell viability (Calu-3 [6]; 10000 nM) [%] | cell viability (U2OS [7]; 1 nM) [%] | cell viability (U2OS [7]; 10 nM) [%] | cell viability (U2OS [7]; 100 nM) [%] | cell viability (U2OS [7]; 1000 nM) [%] | cell viability (U2OS [7]; 10000 nM) [%] | drug sensitivity score (HepG2 [8]) | drug sensitivity score (Caco-2 [9]) | drug sensitivity score (Vero E6 [10]) | drug sensitivity score (Calu-3 [11]) | drug sensitivity score (U2OS [12]) | relative viability EC50 (HepG2 [13]) [µM] | relative viability EC50 (Caco-2 [14]) [µM] |
| --- | --- | --- | --- | --- | --- | --- | --- | --- | --- | --- | --- | --- | --- | --- | --- | --- | --- | --- | --- | --- | --- | --- | --- | --- | --- | --- | --- | --- | --- | --- | --- | --- | --- | --- |
| C=CC(=O)Nc1ccc2ncnc(Nc3cccc(Br)c3)c2c1 | 0.287 | 0.0229 | 100 | 98.7 | 95.2 | 93.6 | 65 | 83.2 | 86.7 | 92 | 71 | 70.6 | 96.8 | 89.6 | 71 | 50.7 | 19.7 | 96 | 79.1 | 46.5 | 32.9 | 35.4 | 96.8 | 107 | 93 | 87.9 | 62.8 | 2.7 | 6.7 | 13.6 | 21 | 3 |  |  |
| CCCCC/N=c1\ccn(Cc2ccccc2)c2ccccc12 | > 10 |  | 96.3 | 99.3 | 96 | 94.3 | 33.9 | 93.3 | 94.9 | 103 | 98.5 | 63 | 94.9 | 100 | 90.6 | 99.2 | 94.2 | 97 | 98.2 | 96.1 | 104 | 65.5 | 101 | 94.4 | 100 | 97.5 | 64.3 | 4.5 | 2 | 0 | 1.4 | 2.1 | 2.46 |  |
| CCOC(=O)c1ncc2[nH]c3ccc(OCc4ccccc4)cc3c2c1COC | > 10 |  | 102 | 105 | 101 | 69.5 | 14.1 | 99.8 | 97 | 90.6 | 79.1 | 63.7 | 91.9 | 97.3 | 87.9 | 93.5 | 85 | 110 | 89.2 | 96.6 | 104 | 70.9 | 96 | 94.9 | 99 | 90.9 | 64.7 | 9 | 4.3 | 0.3 | 1 | 3.1 | 1.27 |  |
| CNS(=O)(=O)Nc1nccc(Cc2c(C)c3ccc(Oc4ncccn4)cc3oc2=O)c1F |  | 0.116 | 101 | 91.8 | 38.3 | 23.8 | 13.8 | 99.8 | 89.4 | 82.9 | 73.4 | 62.5 | 94.6 | 92.9 | 75.4 | 57 | 50.3 | 105 | 96 | 70.8 | 50.1 | 40.8 | 98.2 | 97.9 | 94.3 | 85.7 | 70.8 | 23.5 | 6.7 | 10.9 | 13.1 | 2.5 | 0.0515 |  |
| N#Cc1ccc(Cn2cncc2CN2CCN(c3cccc(Cl)c3)C(=O)C2)cc1 | > 10 |  | 108 | 100 | 107 | 93.3 | 49.9 | 102 | 106 | 107 | 97.2 | 87 | 107 | 102 | 95.4 | 99.9 | 85.5 | 104 | 88.2 | 87.1 | 96.4 | 67.5 | 96.1 | 104 | 98.4 | 99.2 | 68.7 | 3.8 | 0.3 | 0.2 | 2.1 | 1.5 | 2.09 | > 10 |
| O=C(Nc1ccc(S(=O)(=O)Nc2nccs2)cc1)C(c1ccccc1)c1ccccc1 |  |  | 104 | 105 | 103 | 110 | 95.3 | 105 | 101 | 113 | 99 | 103 |  |  |  |  |  |  |  |  |  |  |  |  |  |  |  | 0 | 0 |  |  |  | > 10 | > 10 |
| Nc1nc(O)c2nc(Br)n([C@@H]3O[C@@H]4COP(=O)(O)O[C@H]4[C@H]3O)c2n1 [8-bromo-cGMP] |  | > 10 | 101 | 103 | 94.6 | 110 | 108 |  |  |  |  |  |  |  |  |  |  | 105 | 94.3 | 107 | 90.5 | 113 |  |  |  |  |  | 0 |  |  | 0 |  | > 10 |  |
| O=C(O)Cc1cc2ccccc2nc1C(=O)O [CCMQ] |  |  | 107 | 110 | 95.6 | 109 | 96.9 | 106 | 111 | 103 | 98.2 | 98.4 |  |  |  |  |  |  |  |  |  |  |  |  |  |  |  | 0 | 0 |  |  |  | > 10 | > 10 |
| Cc1nc(N)sc1-c1ccnc(Nc2ccc(N3CCOCC3)cc2)n1 [CYC116] |  | > 10 | 97.9 | 106 | 97.9 | 77.8 | 28.4 | 99.3 | 87.4 | 98.8 | 87.7 | 75.1 | 100 | 103 | 99 | 80.8 | 51.6 | 104 | 109 | 101 | 105 | 75.5 | 104 | 102 | 103 | 89.6 | 53.7 | 7.2 | 1.7 | 5.1 | 0.7 | 4.1 | 1.38 | > 10 |
| CC(=O)[C@@]1(O)CC[C@H]2[C@@H]3C=C(Cl)C4=CC(=O)[C@@H]5C[C@@H]5[C@]4(C)[C@H]3CC[C@@]21C [CYPROTERONE] | > 10 | > 10 |  |  |  |  |  | 106 | 89.5 | 112 | 102 | 95 | 101 | 107 | 99.5 | 104 | 94.9 | 99.5 | 101 | 103 | 86.6 | 97.4 |  |  |  |  |  |  | 0 | 0 | 0 |  |  | > 10 |
| COC(=O)[C@H](CC(C)C)NC(=O)c1ccc(NC[C@@H](N)CS)cc1-c1cccc2ccccc12 [GGTI-298] | > 10 | > 10 | 90.4 | 106 | 101 | 93.8 | 100 | 92.3 | 100 | 95.2 | 98.8 | 75.9 | 105 | 110 | 104 | 86.3 | 92.7 | 93.1 | 104 | 88.8 | 100 | 93.7 | 95.3 | 97.4 | 92.7 | 94.3 | 60.9 | 0 | 1 | 0.9 | 0 | 2.9 | > 10 | > 10 |
| N[C@@H](CS)C(=O)O [L-cysteine] |  |  |  |  |  |  |  |  |  |  |  |  |  |  |  |  |  |  |  |  |  |  |  |  |  |  |  | 0.2 |  | 0 | 0 | 0 |  |  |
| Cn1cnc(-c2cc3nccc(Oc4ccc(NC(=S)NC(=O)Cc5ccccc5)cc4F)c3s2)c1 [MGCD-265] | > 10 |  | 103 | 92.7 | 97.6 | 97.9 | 80.6 | 97 | 99.8 | 98.3 | 84 | 63.6 | 106 | 106 | 103 | 104 | 77.3 | 96.6 | 93.1 | 100 | 86.9 | 62.3 | 102 | 95.9 | 103 | 96.5 | 67.3 | 0.8 | 3.5 | 0.6 | 3.7 | 2 | > 10 |  |
| Oc1cccc(-c2nc(N3CCOCC3)c3oc4ncccc4c3n2)c1 [PI-103] |  |  | 98.8 | 104 | 99.7 | 70.9 | 62 | 100 | 96.9 | 81.2 | 42.4 | 49.9 | 98.3 | 96.2 | 87.9 | 50.5 | 53 | 105 | 95.1 | 81.9 | 84.1 | 53.6 | 103 | 100 | 97 | 69.4 | 76.6 | 5.3 | 13.1 | 11 | 5.1 | 5.6 |  | 0.14 |
| O=C(CBr)N1CC([N+](=O)[O-])([N+](=O)[O-])C1 [RRx-001] | > 10 | > 10 | 102 | 114 | 109 | 106 | 94.8 | 105 | 98.3 | 113 | 104 | 105 | 106 | 106 | 99.6 | 102 | 102 | 101 | 91.6 | 116 | 100 | 100 |  |  |  |  |  | 0 | 0 | 0 | 0 |  | > 10 | > 10 |
| COCCOCCOc1ccc(C2=N[C@@](C)(C(=O)O)CS2)c(O)c1 [SP-420] | > 10 | > 10 | 99.8 | 94.7 | 93 | 102 | 70.6 | 91.5 | 92.1 | 94.1 | 96 | 54 | 95 | 98.5 | 98.3 | 105 | 100 | 95.1 | 102 | 103 | 95.5 | 91.4 | 103 | 99.5 | 108 | 98.5 | 65.4 | 1.1 | 3 | 0 | 0 | 1.8 |  |  |
| CCC(=O)O[C@H]1CC[C@H]2[C@@H]3CCC4=CC(=O)CC[C@]4(C)[C@H]3CC[C@]12C [TESTOSTERONE PROPIONATE] |  |  |  |  |  |  |  |  |  |  |  |  |  |  |  |  |  |  |  |  |  |  |  |  |  |  |  | 0 |  | 0 |  | 0 |  |  |
